Data from patent US4925835A, “Aziridinyl putrescine containing compositions and their uses in treating prostate cancer” (priority 1987, dated 1990).
Where two headings read alike, the source gives them in different places.

Key:
PC-3 cells = experiment: Polyamine assays: intracellular polyamine levels by HPLC; assay type: cell-based, human; settings: PC-3, ±1 mM DFMO 48 h, then ±25 μM AZP 1 h
Method: One h later the medium was aspirated and the cells were rinsed with cold HBSS. Three plates were treated with dilute trypsin to release the cells from the plate and provide a single cell suspension. The viability of the cells and the number of cells per plate were determined by trypan blue exclusion and counting with the aid of a hemocytometer. […] The other three plates were extracted with 0.4N perchloric acid and the polyamines were measured by fluorescence following postcolumn derivatization with o-phthalaldehyde following separation by the reverse phase ion-pair high performance liquid chromatography procedure of Wagner et al., J. Chomatogr., 227: 349-368, 1982.
In Table 2 are listed the values for the triplicate assays of the concentrations of polyamine observed in nontreated cells, cells treated with 1-(4-aminobutyl) aziridine for 1 h, cells pretreated for 48 h with 1 mM difluoromethylornithine and then incubated in drug free medium for 1 h, or cells pretreated for 48 h with difluoromethylornithine, rinsed free of difluoromethylornithine, and then incubated with 25 μM 1-(4-aminobutyl)aziridine for 1 h. All groups had cell viabilities greater than 95% and cell numbers were 4.9±0.6 (SE), 4.9±0.7, 4.8±0.4, and 4.6±0.4×10^6 cells for the control, 1-(4-aminobutyl) aziridine, difluoromethylornithine, and difluoromethylornithine+1-(4-aminobutyl) aziridine groups, respectively. The apparent amount of 1-(4-aminobutyl) aziridine in the difluoromethylornithine-treated cells was 3.7 times that of the 1-(4-aminobutyl) aziridine-only-treated cells. No N^8 -acetylspermidine, acetylputrescine, or cadaverine was detected in any group. A peak was detected at a wavelength of 254 nm in the difluoromethylornithine treatment groups that corresponds to the retention time of decarboxylated S-adenosylmethionine.
^a PC-3 cells were incubated with or without 1 mM DFMO for 48 h. Cell
were then rinsed free of DFMO and incubated for 1 h with 25 μM AZP. Th
cells were washed free of AZP by three rinses of HBSS. With one set of
triplicate plates, the cells were resuspended and counted by hemocytomete
and viability was determined by trypan dye exclusion (viability > 95%).
Another set triplicate plates was extracted with icecold perchloric acid
and filtered and the polyamine concentrations were determined by HPLC.
^b Mean ± SE for a triplicate assay. Histamine is included as a […]

[1] = test system: PC-3 human prostatic carcinoma cell line; experiment: cells; assay type: cell-based
Method: FIG. 3. Effect of AZP on the growth of PC-3 cells with or without DFMO pretreatment. PC-3 cells (3×10^4) were plated in 60-mm^2 Petri dish in RPMI 1640-10% FCS and allowed to attach overnight. The following day the medium was aspirated and replaced with RPMI 1640, 10% FCS, 100 μM aminoguanidine with or without 1 mm DFMO. Forty-eight h later the medium was aspirated, the dishes were rinsed once with HBSS, and the cells were incubated with RPMI 1640-10% FCS-100 μM aminoguanidine with or without 25 μM AZP for 1 h. Following the 1-h incubation the medium was aspirated, the plates were rinsed twice with HBSS, and the incubation was continued with fresh RPMI 1640-10% FCS-100 μM aminoguanidine. At the indicated times following initial plating the cells were lifted from the plate by trypsinization and were examined for their ability to exclude trypan blue. Total cell counts were obtained with the aid of a hemocytometer, and the completeness of the removal of the cells from the dish was verified by the examination of each dish with the inverted microscope. , control; Δ, DFMO; .circle., AZP; .quadrature., DFMO+AZP. Points, means; bars, SE.
FIG. 4. Dose-effect relationship of AZP on the growth on PC-3 prostatic cancer cells. PC-3 cells (3×10^4) were plated in RPMI 1640-10% FCS in 60-mm^2 Petri dishes and allowed to attach overnight. The following day the medium was aspirated and replaced with RPMI 1640-10% FCS-100 μM aminoguanidine with or without 1 mm DFMO. Forty-eight h later the medium was aspirated, and the cells were rinsed once with HBSS and replaced with RPMI 1640-10% FCS-100 μM aminoguanidine with or without the indicated μM concentrations of AZP. After a 1-h incubation the medium was aspirated, the cells were rinsed twice with HBSS, and the incubation was continued with fresh RPMI 1640-10% FCS-100 μM aminoguanidine. Eight days following plating the cells were lifted from the plates by trypsinization and were counted with the aid of a hemocytometer and expressed as a percentage of control (100% without DFMO, 212±31×10^4; 100% with DFMO pretreatment, 219±25× 10^4 cells, respectively). , DFMO pretreated; .circle., without DFMO.
Assays of cell growth were performed by plating 3×10^4 PC-3 cells in RPMI 1640 medium with 10% FCS and allowing them to attach overnight. The following morning the medium was replaced with incubation medium consisting of RPMI 1640, 10% FCS, 100 μM aminoguanidine, 100 units/ml of penicillin, 100 μg/ml of streptomycin, and 2 mM glutamine, with or without 1 mM difluoromethylornithine. Two days later the medium was aspirated and replaced with or without 1-(4-aminobutyl) aziridine at the designated concentration usually for 1 h or for the designated length of time. Following the 1-h incubation, the medium of all groups was aspirated and the dishes were rinsed with HBSS and replaced with fresh incubation medium. Either daily or 8 days following plating, the Petri dishes were rinsed with HBSS and the cells were lifted from the plate by trypsinization. The dishes were examined for completeness of cell removal by examination with an inverted microscope. The cells were counted with a Zeiss microscope using a hemocytometer. Tumor cell population doubling time was determined by ploting the natural logarithm (ln) of the number of cells versus the days following plating. The slope of this line was determined using the Memorial Sloan-Kettering Cancer Center Clin computer system statistical analysis package. Doubling time (DT) was determined as ln 2/slope=DT. Statistical differences in cell number between groups were determined by Student's t statistic with the aid of the Memorial Sloan-Kettering Cancer Center Clin computer using the statistics program.
^a Thirty thousand PC3 cells were plated in 60mm^2 Petri dishes i
RPMI 164010% FCS. The next day the medium was aspirated and replaced with
RPMI 164010% FCS medium with 100 μM aminoguanidine with or without 1 m
DFMO. Fortyeight h later the medium was aspirated. […]

[2] = test system: human prostate cancer cell line PC-3; experiment: cells; assay type: cell-based
Method: Aziridinyl putrescine 1-(4-aminobutyl) aziridine was synthesized using the method as described by Piper, et al., J. Med. Chem. 12: 236-243 (1968). Cells of the human prostate cancer cell line PC-3 were used.
10^3 PC-3 human cells were plated in RPMI 1640 with 10% FCS/3 ml in 60 mm^2 petri dishes. The cell plates were incubated either with, or without difluoromethylornithine for 48 hours. This was followed by aspiration, and replacement with a medium containing either no additives, 50 uM 1-(4-aminobutyl) aziridine, 1 mM putrescine, or both 50 uM 1-(4-aminobutyl) aziridine and 1 mM putrescine. The media were aspirated after 1 hour, and replaced with a drug free medium. Incubation continued for 5 days.
*Represents mean number of colonies ± one standard deviation of
triplicate assay. Number in parenthesis is percent of control.

normal rat prostate = experiment: In vivo antiprostatic activity, prostate wet weight; settings: Copenhagen rats, 14 days; AZP 2 mg/kg/day by intraperitoneal infusion mini-pump, DFMO similar amount orally
Method: 1-(4-aminobutyl) aziridine, difluoromethylornithine, and a combination of 1-(4-aminobutyl) aziridine and difluoromethylornithine were tested in vivo for antiprostatic activity using Copenhagen rats. The normal rat prostate is often used as a model or control for drugs which are suspected of having antiprostatic cancer activity. Sloan, et al., Cancer Chemother. Rep. 59: 185-194 (1975). 1-(4-aminobutyl) aziridine, difluoromethylornithine, and a combination of 1-(4-aminobutyl) aziridine and difluoromethylornithine were administered to twenty-eight (28) Copenhagen rats for 14 days. 1-(4-aminobutyl) aziridine was administered by an infusion mini-pump implanted intraperitoneally.
Difluoromethylornithine was administered orally. The 1-(4-aminobutyl) aziridine was delivered at a rate of 2 mg/kg/day. A similar amount of difluoromethylornithine was administered orally on a daily basis. Before loading the infusion pump, the pH of 1-(4-aminobutyl) aziridine was adjusted to 7.5 with hydrochloric acid. The pump rate was 0.5 u./hr.
The prostates of the twenty-eight (28) subjects were removed, freed of fat and weighed to the nearest milligram.

[3] = test system: uptake of [14C]putrescine into PC-3 cells; assay type: cell-based, human
Method: FIG. 1. Lineweaver-Burk plot of the uptake of [^14 C]putrescine by DFMO-pretreated cells. The ordinate is expressed as 1/pmol/15 min. The abscissa is expressed as 1 μM concentrations containing from 16 to 1.0 μM [^14 C]putrescine.
Fifty thousand PC-3 cells were plated in 12-well plates and 18 h later the incubation medium was removed and replaced with 1 ml or RPMI 1640 medium containing 25 mM 4-(2-hydroxyethyl)-1-piperazineethansulfonic acid buffer, 100 μM aminoguanidine, and 10% FCS. Forty-eight h later the medium was replaced with medium which contained [^14 C]putrescine in concentrations ranging from 16 to 1.0 μM with or without 5 1M 1-(4-aminobutyl) aziridine. Following incubation at 37° C. for 15 min the [^14 C]putrescine-containing medium was aspirated, and the cells were rinsed rapidly 4 times with HBSS. Following the last rinse, 1.0 ml of a solution of 0.1N NaOH was added and after a 2-h incubation at room temperature a 0.2-ml aliquot was added to 1 ml of 2% glacial acidic acid and 10 ml of Scintiverse 1 scintillation cocktail and the radioactive disintegrations were determined with a Packard Tri-Carb 300 scintillation spectrophotometer. Counting efficiency for ^14 C was 80%. Kinetic analysis of uptake was performed by graphic methods as described by Dixon and Webb, Enzymes, p. 322, New York Academic Press (1959).
In FIG. 1 a Lineweaver-Burk plot of the uptake of [^14 C]-putrescine into the PC-3 cells is presented and was used to determine the Km (intercept x axis) and Vmax (intercept y axis) for putrescine.

[4] = PC-3, 48 h with or without DFMO, then 1 h with 50 uM AZP and/or 1 mM putrescine, 5 days drug free

Row | SMILES | Cell numbers at end of treatment (PC-3 cells; SE) | Polyamine levels: Hist (histamine, nonpolyamine control) (PC-3 cells; mean ± SE) [pmol/10^6] | Polyamine levels: NaSpm (N-acetylspermine) (PC-3 cells; mean ± SE) [pmol/10^6] | Polyamine levels: PUT (putrescine) (PC-3 cells; mean ± SE) [pmol/10^6] | Polyamine levels: Spd (spermidine) (PC-3 cells; mean ± SE) [pmol/10^6] | Polyamine levels: Spm (spermine) (PC-3 cells; mean ± SE) [pmol/10^6] | Cells per dish on day 8 following plating ([1]; PC-3, 3×10^4 plated, ±1 mM DFMO 48 h, ±25 μM AZP 1 h, mean±SD of triplicates) | Doubling time ([1]; PC-3, 25 μM AZP 1 h or 1 mM DFMO 48 h, mean±SE) [days] | Inhibition of proliferation of human prostate cancer cells in culture ([2]; AZP at 50 uM, from Table 1) | Clonogenic survivors (mean number of colonies ± one standard deviation) [2, 4] [colonies] | Clonogenic survivors, percent of control [2, 4] [%] | Dorsal Lateral Prostate, milligram wet weight (SEM) (normal rat prostate) [milligram] | Ventral Prostate, milligram wet weight (SEM) (normal rat prostate) [milligram] | Cell no. [1] | Growth-inhibitory activity toward PC-3 cells (in words) [1] | Cell no. as a percentage of control ([1]; pc-3 cells, 11520 min) [%] | Km [3] [µM] | Vmax of putrescine uptake [3] [pmol/15 min/10^5 cells] | Vmax of putrescine uptake ([3]; PC-3 cells, without difluoromethylornithine pretreatment) [pmol/15 min/10^5 cells]
1 | NCCCC(N)(C(=O)O)C(F)F (stereo not shown) [DFMO, difluoromethylornithine, reference compound] | 4.8±0.4 ×10^6 cells | 98 ± 26 | 130 ± 10 | 192 ± 34 | 171 ± 66 | 3046 ± 554 | 340±54 ×10^4 cells per dish | 1.14 ± 0.05 | little effect | 549 ± 57 | 94 | 445 ± 32 | 377 ± 16 |  |  |  |  |  | 
2 | NCCCCN [PUT, 1,4-butanediamine, reference compound] |  |  |  |  |  |  |  |  |  |  |  |  |  | 438 ± 16 × 10^-4 | no growth-inhibitory activity | 106 | 2.5 | 190 | 40
